Experimental data as given in PubChem BioAssay AID2060603 (Molecular Pharmacology Branch, DTP, NCI, 2025).
Values joined by “and” are separate entries in the source; they are usually repeats but may differ in a detail not shown here. Equal entries are not always repeated.

System: 422866-222-R5-J1-PDC spheroid viability
Assay: Anticancer human tumor 422866-222-R5-J1-PDC patient-derived pancreatic adenocarcinoma cell line growth inhibition [CLK]
Settings: spheroids with HUVEC and MSC; for viability, T/C: stronger effect = lower value; active means viability on the fitted dose curve at most 10% of control; inactive means the rest
Outline: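 Multi-cell-type spheroids combined patient-derived tumor cells with HUVEC endothelial cells and human mesenchymal stem cells. Paired agents were dosed in half-log steps down from about clinical Cmax, or from 10 microM where Cmax was unknown.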

[1] = curve of first compound, second compound 0.0316 µM
[2] = curve of first compound, second compound 0.1 µM
[3] = curve of first compound, second compound 0.316 µM
[4] = curve of first compound, second compound 1 µM
[5] = curve of first compound, second compound 3.16 µM
[6] = curve of first compound, second compound 10 µM
[7] = second compound 0.0316 µM, first compound 0.00949 µM
[8] = second compound 0.0316 µM, first compound 0.03 µM
[9] = second compound 0.0316 µM, first compound 0.0949 µM
[10] = second compound 0.0316 µM, first compound 0.3 µM
[11] = second compound 0.0316 µM, first compound 0.949 µM
[12] = second compound 0.0316 µM, first compound 3 µM
[13] = second compound 0.1 µM, first compound 0.00949 µM
[14] = second compound 0.1 µM, first compound 0.03 µM
[15] = second compound 0.1 µM, first compound 0.0949 µM
[16] = second compound 0.1 µM, first compound 0.3 µM
[17] = second compound 0.1 µM, first compound 0.949 µM
[18] = second compound 0.1 µM, first compound 3 µM
[19] = second compound 0.316 µM, first compound 0.00949 µM
[20] = second compound 0.316 µM, first compound 0.03 µM
[21] = second compound 0.316 µM, first compound 0.0949 µM
[22] = second compound 0.316 µM, first compound 0.3 µM
[23] = second compound 0.316 µM, first compound 0.949 µM
[24] = second compound 0.316 µM, first compound 3 µM
[25] = second compound 1 µM, first compound 0.00949 µM
[26] = second compound 1 µM, first compound 0.03 µM
[27] = second compound 1 µM, first compound 0.0949 µM
[28] = second compound 1 µM, first compound 0.3 µM
[29] = second compound 1 µM, first compound 0.949 µM
[30] = second compound 1 µM, first compound 3 µM
[31] = second compound 3.16 µM, first compound 0.00949 µM
[32] = second compound 3.16 µM, first compound 0.03 µM
[33] = second compound 3.16 µM, first compound 0.0949 µM
[34] = second compound 3.16 µM, first compound 0.3 µM
[35] = second compound 3.16 µM, first compound 0.949 µM
[36] = second compound 3.16 µM, first compound 3 µM
[37] = second compound 10 µM, first compound 0.00949 µM
[38] = second compound 10 µM, first compound 0.03 µM
[39] = second compound 10 µM, first compound 0.0949 µM
[40] = second compound 10 µM, first compound 0.3 µM
[41] = second compound 10 µM, first compound 0.949 µM
[42] = second compound 10 µM, first compound 3 µM
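Further: spheroids exposed to agents for seven days before readout.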

CC1(C)CCC(CN2CCN(c3ccc(C(=O)NS(=O)(=O)c4ccc(NCC5CCOCC5)c([N+](=O)[O-])c4)c(Oc4cnc5[nH]ccc5c4)c3)CC2)=C(c2ccc(Cl)cc2)C1 + CNC(=O)c1ccc(Nc2nc(OC3CCCC3)c3c(-c4ccc5nc(C)oc5c4)c[nH]c3n2)c(OC)c1
inactive: viability, T/C (second compound 0.0316 µM, first compound 0.0316 µM) 115% | viability, T/C (second compound 0.0316 µM, first compound 0.1 µM) 87.5% | viability, T/C (second compound 0.0316 µM, first compound 0.316 µM) 93.9% | viability, T/C (second compound 0.0316 µM, first compound 1 µM) 119% | viability, T/C (second compound 0.0316 µM, first compound 3.16 µM) 131% | viability, T/C (second compound 0.0316 µM, first compound 10 µM) 93.4% | viability, T/C (second compound 0.1 µM, first compound 0.0316 µM) 114% | viability, T/C (second compound 0.1 µM, first compound 0.1 µM) 90% | viability, T/C (second compound 0.1 µM, first compound 0.316 µM) 98.7% | viability, T/C (second compound 0.1 µM, first compound 1 µM) 100% | viability, T/C (second compound 0.1 µM, first compound 3.16 µM) 114% | viability, T/C (second compound 0.1 µM, first compound 10 µM) 81.3% | viability, T/C (second compound 0.316 µM, first compound 0.0316 µM) 84.6% | viability, T/C (second compound 0.316 µM, first compound 0.1 µM) 71.9% | viability, T/C (second compound 0.316 µM, first compound 0.316 µM) 70.1% | viability, T/C (second compound 0.316 µM, first compound 1 µM) 75.7% | viability, T/C (second compound 0.316 µM, first compound 3.16 µM) 86.6% | viability, T/C (second compound 0.316 µM, first compound 10 µM) 78% | viability, T/C (second compound 1 µM, first compound 0.0316 µM) 75.3% | viability, T/C (second compound 1 µM, first compound 0.1 µM) 76.4% | viability, T/C (second compound 1 µM, first compound 0.316 µM) 76% | viability, T/C (second compound 1 µM, first compound 1 µM) 70.7% | viability, T/C (second compound 1 µM, first compound 3.16 µM) 66% | viability, T/C (second compound 1 µM, first compound 10 µM) 57.1% | viability, T/C (second compound 3.16 µM, first compound 0.0316 µM) 65.2% | viability, T/C (second compound 3.16 µM, first compound 0.1 µM) 76.6% | viability, T/C (second compound 3.16 µM, first compound 0.316 µM) 66.4% | viability, T/C (second compound 3.16 µM, first compound 1 µM) 67.7% | viability, T/C (second compound 3.16 µM, first compound 3.16 µM) 76.8% | viability, T/C (second compound 3.16 µM, first compound 10 µM) 79.5% | viability, T/C (second compound 10 µM, first compound 0.0316 µM) 60.3% | viability, T/C (second compound 10 µM, first compound 0.1 µM) 62.4% | viability, T/C (second compound 10 µM, first compound 0.316 µM) 61% | viability, T/C (second compound 10 µM, first compound 1 µM) 56.6% | viability, T/C (second compound 10 µM, first compound 3.16 µM) 78.1% | viability, T/C (second compound 10 µM, first compound 10 µM) 84.3%
> 10000 nM: IC50 [1] | IC50 [2] | IC50 [3] | IC50 [4] | IC50 [5] | IC50 [6]

NC(=O)C(=Cn1cnc(-c2cc(C(F)(F)F)cc(C(F)(F)F)c2)n1)c1cncnc1 + CN1CCN(c2cc(C(=O)Nc3cc4cc(-c5cnn(C)c5)ccc4cn3)ccn2)CC1
active: viability, T/C [37] 2.84% | viability, T/C [38] 1.47% | viability, T/C [39] 2.11% | viability, T/C [40] 1.91% | viability, T/C [41] 6.33% | viability, T/C [42] 9.39%
55.8 nM: IC50 [3]
> 3000 nM: IC50 [1] | IC50 [2]
inactive: viability, T/C [7] 123% | viability, T/C [8] 117% | viability, T/C [9] 80% | viability, T/C [10] 48.4% | viability, T/C [11] 66.3% | viability, T/C [12] 78.4% | viability, T/C [13] 110% | viability, T/C [14] 94.6% | viability, T/C [15] 73.8% | viability, T/C [16] 32.1% | viability, T/C [17] 55.6% | viability, T/C [18] 67.4% | viability, T/C [19] 66.5% | viability, T/C [20] 63.8% | viability, T/C [21] 38.2% | viability, T/C [22] 21.9% | viability, T/C [23] 21% | viability, T/C [24] 20.9% | viability, T/C [25] 15.6% | viability, T/C [26] 14.2% | viability, T/C [27] 15.1% | viability, T/C [28] 22.4% | viability, T/C [29] 22.9% | viability, T/C [30] 14.5% | viability, T/C [31] 12.9% | viability, T/C [32] 15.1% | viability, T/C [33] 18.3% | viability, T/C [34] 18.9% | viability, T/C [35] 19.9% | viability, T/C [36] 18.5%
< 9.49 nM: IC50 [4] | IC50 [5] | IC50 [6]

CCCS(=O)(=O)Nc1ccc(F)c(C(=O)c2c[nH]c3ncc(-c4ccc(Cl)cc4)cc23)c1F
inactive: viability, T/C (compound 0.0316 µM) 103% and 89.2% | viability, T/C (compound 0.1 µM) 100% and 86% | viability, T/C (compound 0.316 µM) 128% and 114% | viability, T/C (compound 1 µM) 147% and 152% | viability, T/C (compound 3.16 µM) 169% and 165% | viability, T/C (compound 10 µM) 137% and 149%
> 10000 nM: IC50 (curve of compound)

NC(=O)C(=Cn1cnc(-c2cc(C(F)(F)F)cc(C(F)(F)F)c2)n1)c1cncnc1 + CNC(=O)c1ccc(Nc2nc(OC3CCCC3)c3c(-c4ccc5nc(C)oc5c4)c[nH]c3n2)c(OC)c1
inactive: viability, T/C [7] 98.7% | viability, T/C [8] 107% | viability, T/C [9] 95.1% | viability, T/C [10] 47.6% | viability, T/C [11] 75.6% | viability, T/C [12] 76.5% | viability, T/C [13] 98.5% | viability, T/C [14] 115% | viability, T/C [15] 66.6% | viability, T/C [16] 46.2% | viability, T/C [17] 47.5% | viability, T/C [18] 67.5% | viability, T/C [19] 86.1% | viability, T/C [20] 87.6% | viability, T/C [21] 56.8% | viability, T/C [22] 31.4% | viability, T/C [23] 45.4% | viability, T/C [24] 71.8% | viability, T/C [25] 52% | viability, T/C [26] 69.5% | viability, T/C [27] 40.6% | viability, T/C [28] 21.7% | viability, T/C [29] 32.3% | viability, T/C [30] 54.9% | viability, T/C [31] 45.7% | viability, T/C [32] 60.2% | viability, T/C [33] 37.3% | viability, T/C [34] 21.3% | viability, T/C [35] 29.5% | viability, T/C [36] 48.2% | viability, T/C [37] 55.1% | viability, T/C [38] 65.4% | viability, T/C [39] 40.9% | viability, T/C [40] 27.9% | viability, T/C [41] 37.2% | viability, T/C [42] 49.3%
37 nM: IC50 [5]
> 3000 nM: IC50 [1] | IC50 [2]
279 nM: IC50 [3]
55.4 nM: IC50 [4]
55.2 nM: IC50 [6]
